In the supplement of paper PMC10307832:

Tests used:
Test in all cases: relative viability (nuclei count vs DMSO), 5 days (fraction); higher = more cells survive
Ispinesib + Palbociclib = compound: Cc1ccc(C(=O)N(CCCN)[C@@H](c2nc3cc(Cl)ccc3c(=O)n2Cc2ccccc2)C(C)C)cc1 [Ispinesib] + CC(=O)c1c(C)c2cnc(Nc3ccc(N4CCNCC4)cn3)nc2n(C2CCCC2)c1=O [Palbociclib] (partner 0.5 µM)
Summary of the method: (§1)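 Lung cancer cell lines, seeded in 1536-well plates, were treated the following day by pin tool with a single drug or with five library-drug doses (not always all listed) in √10 steps on top of a fixed anchor-drug dose. Cells were fixed and nuclei stained in one step after 5 days, and nuclei were counted. Relative viability is the nuclei count for treated wells divided by that for vehicle wells, reported as medians of duplicate plates.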

Ispinesib + Olaparib = compound: Cc1ccc(C(=O)N(CCCN)[C@@H](c2nc3cc(Cl)ccc3c(=O)n2Cc2ccccc2)C(C)C)cc1 [Ispinesib] + O=C(c1cc(Cc2n[nH]c(=O)c3ccccc23)ccc1F)N1CCN(C(=O)C2CC2)CC1 [Olaparib] (partner 8 µM)
Summary of the method: as §1

Ispinesib + Lapatinib = compound: Cc1ccc(C(=O)N(CCCN)[C@@H](c2nc3cc(Cl)ccc3c(=O)n2Cc2ccccc2)C(C)C)cc1 [Ispinesib] + CS(=O)(=O)CCNCc1ccc(-c2ccc3ncnc(Nc4ccc(OCc5cccc(F)c5)c(Cl)c4)c3c2)o1 [Lapatinib] (partner 2 µM)
Summary of the method: as §1

Ispinesib + Linsitinib = compound: Cc1ccc(C(=O)N(CCCN)[C@@H](c2nc3cc(Cl)ccc3c(=O)n2Cc2ccccc2)C(C)C)cc1 [Ispinesib] + C[C@]1(O)C[C@@H](c2nc(-c3ccc4ccc(-c5ccccc5)nc4c3)c3c(N)nccn32)C1 [Linsitinib] (partner 1 µM)
Summary of the method: as §1

| Cell Line | relative viability (Ispinesib + Palbociclib; first compound 0.001 µM) | relative viability (Ispinesib + Palbociclib; first compound 0.003162 µM) | relative viability (Ispinesib + Palbociclib; first compound 0.01 µM) | relative viability (Ispinesib + Palbociclib; first compound 0.03162 µM) | relative viability (Ispinesib + Palbociclib; first compound 0.1 µM) | relative viability (Ispinesib + Olaparib; first compound 0.001 µM) | relative viability (Ispinesib + Olaparib; first compound 0.003162 µM) | relative viability (Ispinesib + Olaparib; first compound 0.01 µM) | relative viability (Ispinesib + Olaparib; first compound 0.03162 µM) | relative viability (Ispinesib + Olaparib; first compound 0.1 µM) | relative viability (Ispinesib + Lapatinib; first compound 0.001 µM) | relative viability (Ispinesib + Lapatinib; first compound 0.003162 µM) | relative viability (Ispinesib + Lapatinib; first compound 0.01 µM) | relative viability (Ispinesib + Lapatinib; first compound 0.03162 µM) | relative viability (Ispinesib + Lapatinib; first compound 0.1 µM) | relative viability (Ispinesib + Linsitinib; first compound 0.001 µM) | relative viability (Ispinesib + Linsitinib; first compound 0.003162 µM) | relative viability (Ispinesib + Linsitinib; first compound 0.01 µM) | relative viability (Ispinesib + Linsitinib; first compound 0.03162 µM) | relative viability (Ispinesib + Linsitinib; first compound 0.1 µM) |
| --- | --- | --- | --- | --- | --- | --- | --- | --- | --- | --- | --- | --- | --- | --- | --- | --- | --- | --- | --- | --- |
| SW 900 | 0.566 | 0.638 | 0.609 | 0.624 | 0.321 | 0.858 | 0.889 | 0.914 | 0.827 | 0.418 | – | – | – | – | – | – | – | – | – | – |
| NCI-H2342 | 0.571 | 0.539 | 0.556 | 0.541 | 0.522 | 0.413 | 0.423 | 0.423 | 0.453 | 0.328 | – | – | – | – | – | – | – | – | – | – |
| HCC-366 | 0.289 | 0.448 | 0.497 | 0.5 | 0.0937 | 0.355 | 0.434 | 0.372 | 0.476 | 0.0931 | 1.03 | 1.12 | 1.33 | 0.0151 | 0.0387 | 1.13 | 0.595 | 1.04 | 0.719 | 0.167 |
| EBC-1 | – | – | – | – | – | 0.772 | 0.725 | 0.792 | 0.669 | 0.171 | 0.203 | 0.204 | 0.223 | 0.13 | 0.193 | 0.926 | 1.04 | 1.04 | 0.8 | 0.187 |
| ChaGo-K-1 | 0.8 | 1.01 | 1.11 | 0.985 | 0.845 | 0.399 | 0.449 | 0.431 | 0.445 | 0.382 | – | – | – | – | – | – | – | – | – | – |
| LCLC-97TM1 | 0.238 | 0.343 | 0.279 | 0.181 | 0.119 | 0.396 | 0.544 | 0.406 | 0.318 | 0.216 | 0.998 | 1.18 | 0.858 | 0.673 | 0.112 | 0.205 | 0.152 | 0.175 | 0.262 | 0.169 |
